Data set [1] can be described thus: Oral bioavailability mouse. It counts as ADME, organism-based. Particulars: in vivo.
The test system of another data set is Mus musculus. Description: Dose normalized AUC in po dosed mouse. It counts as ADME, organism-based. Particulars: in vivo.
Data set [2] is described as follows: Clearance in mouse. Format: ADME, organism-based. Particulars: in vivo.
Data set [3] is described as follows: Clearance in monkey. It counts as ADME, organism-based, Macaca mulatta. Particulars: rhesus monkey, in vivo.
Data set [4] deals with T1, Phosphatidylinositol 4,5-bisphosphate 3-kinase catalytic subunit beta isoform (Homo sapiens, UniProt P42338). Nature of the data set: Inhibition of PI3Kbeta human in PTEN-null MDA-MB-468 cells assessed as reduction of AKT phosphorylation at Ser 473 in absence of serum. Format: cell-based.
T1 sequence (P42338 whole entry, canonical isoform): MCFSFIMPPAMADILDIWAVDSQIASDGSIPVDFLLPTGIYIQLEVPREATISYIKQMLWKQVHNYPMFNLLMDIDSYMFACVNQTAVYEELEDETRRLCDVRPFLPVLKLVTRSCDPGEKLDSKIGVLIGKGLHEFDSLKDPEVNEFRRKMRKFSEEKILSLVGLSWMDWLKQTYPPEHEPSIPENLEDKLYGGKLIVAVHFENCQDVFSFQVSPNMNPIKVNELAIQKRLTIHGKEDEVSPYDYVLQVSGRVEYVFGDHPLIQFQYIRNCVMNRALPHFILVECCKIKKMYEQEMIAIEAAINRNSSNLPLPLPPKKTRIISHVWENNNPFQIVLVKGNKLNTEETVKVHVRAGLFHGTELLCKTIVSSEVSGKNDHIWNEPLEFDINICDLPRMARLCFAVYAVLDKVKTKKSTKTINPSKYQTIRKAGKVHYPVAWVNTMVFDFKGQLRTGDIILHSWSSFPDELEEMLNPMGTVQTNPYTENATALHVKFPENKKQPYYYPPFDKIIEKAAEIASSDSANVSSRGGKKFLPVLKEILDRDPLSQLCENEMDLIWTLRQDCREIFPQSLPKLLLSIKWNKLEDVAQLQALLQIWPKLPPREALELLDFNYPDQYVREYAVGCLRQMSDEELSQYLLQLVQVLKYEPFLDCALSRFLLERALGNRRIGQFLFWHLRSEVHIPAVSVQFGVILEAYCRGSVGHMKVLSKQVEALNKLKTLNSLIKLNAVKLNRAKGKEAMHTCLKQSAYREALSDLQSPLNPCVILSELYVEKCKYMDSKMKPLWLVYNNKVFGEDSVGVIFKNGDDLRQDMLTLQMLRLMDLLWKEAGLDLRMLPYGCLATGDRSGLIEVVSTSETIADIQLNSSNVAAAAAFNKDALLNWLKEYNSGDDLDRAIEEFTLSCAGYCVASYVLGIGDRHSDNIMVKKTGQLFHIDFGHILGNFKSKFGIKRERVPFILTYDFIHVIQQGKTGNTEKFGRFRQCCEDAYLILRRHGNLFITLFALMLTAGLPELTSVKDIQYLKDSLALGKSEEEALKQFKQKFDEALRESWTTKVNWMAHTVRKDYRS
Data set [5] addresses T1, Phosphatidylinositol 4,5-bisphosphate 3-kinase catalytic subunit beta isoform. Description: Inhibition of PI3Kbeta human in PTEN-null MDA-MB-468 cells assessed as reduction of AKT phosphorylation at Ser 473 in presence of serum. Format: cell-based.
Data set [6] in a line: Plasma protein binding in rat serum by equilibrium dialysis. It counts as ADME, cell-free. Conditions: read-out: PPB (converted). (Equilibrium dialysis compares concentrations on both sides of a semipermeable membrane.)
Data set [7] is described as follows: Plasma protein binding in mouse serum by equilibrium dialysis. It counts as ADME, cell-free. Particulars: read-out: PPB (converted).
A short description of data set [8]: Plasma protein binding in human serum by equilibrium dialysis. It counts as ADME, cell-free. Particulars: read-out: PPB (converted).
Data set [9] in a line: Permeability of the compound across MDCK cells. It counts as ADME, cell-based, Canis lupus familiaris. Particulars: dog, read-out: permeability.
A short description of data set [10]: Aqueous solubility of the compound. Format: physicochemical.
The target of data set [11] is T1, Phosphatidylinositol 4,5-bisphosphate 3-kinase catalytic subunit beta isoform. Nature of the data set: Inhibition of PI3Kbeta human in PTEN wild type HCC1954 cells assessed as reduction of AKT phosphorylation at Ser 473. Format: cell-based.
Data set [12] can be described thus: Clearance in rat. Format: ADME, organism-based. Conditions: in vivo.
Data set [13] addresses Phosphatidylinositol 4,5-bisphosphate 3-kinase catalytic subunit gamma isoform (Homo sapiens, UniProt P48736). Description: Inhibition of PI3Kgamma (unknown origin).
The target in data set [14] is Phosphatidylinositol 4,5-bisphosphate 3-kinase catalytic subunit alpha isoform (Homo sapiens, UniProt P42336). Description: Inhibition of PI3Kalpha (unknown origin).
Sequence of Phosphatidylinositol 4,5-bisphosphate 3-kinase catalytic subunit alpha isoform (P42336 whole entry, canonical isoform): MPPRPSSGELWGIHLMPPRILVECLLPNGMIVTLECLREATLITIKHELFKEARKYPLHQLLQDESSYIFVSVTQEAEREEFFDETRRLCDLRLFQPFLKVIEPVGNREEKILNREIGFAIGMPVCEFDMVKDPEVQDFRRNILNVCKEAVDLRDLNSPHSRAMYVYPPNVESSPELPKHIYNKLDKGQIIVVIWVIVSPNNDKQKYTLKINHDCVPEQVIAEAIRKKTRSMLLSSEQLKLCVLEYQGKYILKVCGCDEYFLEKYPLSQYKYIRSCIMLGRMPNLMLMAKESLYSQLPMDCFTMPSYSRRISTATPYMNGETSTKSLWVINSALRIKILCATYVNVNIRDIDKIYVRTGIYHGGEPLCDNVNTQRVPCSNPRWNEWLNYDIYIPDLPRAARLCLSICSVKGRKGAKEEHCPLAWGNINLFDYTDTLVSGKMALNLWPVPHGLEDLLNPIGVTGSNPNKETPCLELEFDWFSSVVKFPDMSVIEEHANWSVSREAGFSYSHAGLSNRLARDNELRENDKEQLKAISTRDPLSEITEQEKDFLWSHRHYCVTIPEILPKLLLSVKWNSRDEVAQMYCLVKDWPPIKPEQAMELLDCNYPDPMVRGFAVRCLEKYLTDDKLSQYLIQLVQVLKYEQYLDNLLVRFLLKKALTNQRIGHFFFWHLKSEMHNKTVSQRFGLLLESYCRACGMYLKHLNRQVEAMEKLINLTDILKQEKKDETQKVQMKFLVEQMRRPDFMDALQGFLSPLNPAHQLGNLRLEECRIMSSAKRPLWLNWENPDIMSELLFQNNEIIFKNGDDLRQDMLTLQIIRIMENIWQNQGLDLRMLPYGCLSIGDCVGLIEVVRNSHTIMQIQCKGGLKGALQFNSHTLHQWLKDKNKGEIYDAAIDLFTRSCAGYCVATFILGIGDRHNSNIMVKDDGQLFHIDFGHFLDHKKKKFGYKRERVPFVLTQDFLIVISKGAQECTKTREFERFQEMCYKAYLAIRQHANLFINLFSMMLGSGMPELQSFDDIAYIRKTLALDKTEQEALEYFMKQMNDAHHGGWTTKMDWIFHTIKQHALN
Data set [15] deals with T1, Phosphatidylinositol 4,5-bisphosphate 3-kinase catalytic subunit beta isoform. Nature of the data set: Inhibition of PI3Kbeta (unknown origin).
Data set [16] concerns the target T2, Phosphatidylinositol 4,5-bisphosphate 3-kinase catalytic subunit delta isoform (Homo sapiens, UniProt O00329).
T2 sequence (O00329 whole entry): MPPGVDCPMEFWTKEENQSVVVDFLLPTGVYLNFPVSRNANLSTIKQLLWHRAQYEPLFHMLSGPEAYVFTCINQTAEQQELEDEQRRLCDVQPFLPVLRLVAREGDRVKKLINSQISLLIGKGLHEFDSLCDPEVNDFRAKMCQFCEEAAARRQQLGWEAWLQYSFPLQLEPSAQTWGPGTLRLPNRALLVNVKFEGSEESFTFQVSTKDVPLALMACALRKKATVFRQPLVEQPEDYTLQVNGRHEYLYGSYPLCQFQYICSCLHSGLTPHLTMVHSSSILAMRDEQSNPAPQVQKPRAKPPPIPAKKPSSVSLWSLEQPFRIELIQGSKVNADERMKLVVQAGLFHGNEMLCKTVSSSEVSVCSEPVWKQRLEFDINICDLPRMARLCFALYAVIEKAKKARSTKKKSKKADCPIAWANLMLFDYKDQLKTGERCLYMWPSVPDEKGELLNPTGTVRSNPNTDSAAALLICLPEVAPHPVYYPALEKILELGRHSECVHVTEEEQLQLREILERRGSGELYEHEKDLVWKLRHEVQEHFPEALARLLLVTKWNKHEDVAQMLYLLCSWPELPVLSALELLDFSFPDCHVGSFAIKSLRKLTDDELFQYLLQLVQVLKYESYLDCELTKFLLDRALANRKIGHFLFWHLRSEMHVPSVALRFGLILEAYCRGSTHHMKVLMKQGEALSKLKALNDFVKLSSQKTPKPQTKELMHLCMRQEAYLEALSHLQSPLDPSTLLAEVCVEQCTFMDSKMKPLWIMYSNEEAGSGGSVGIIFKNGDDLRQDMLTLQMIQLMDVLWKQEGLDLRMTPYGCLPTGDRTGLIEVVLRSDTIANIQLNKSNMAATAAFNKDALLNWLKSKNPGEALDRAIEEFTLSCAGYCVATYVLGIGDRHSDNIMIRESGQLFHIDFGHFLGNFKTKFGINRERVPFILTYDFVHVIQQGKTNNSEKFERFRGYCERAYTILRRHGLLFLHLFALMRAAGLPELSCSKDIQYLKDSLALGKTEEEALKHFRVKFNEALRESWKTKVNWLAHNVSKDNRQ
Description: Inhibition of PI3Kdelta (unknown origin).

Each structure is given as a SMILES string. Values after ≈ are worked out from the molar mass of the structure shown.

Sequence of Phosphatidylinositol 4,5-bisphosphate 3-kinase catalytic subunit gamma isoform (P48736 whole entry, canonical isoform): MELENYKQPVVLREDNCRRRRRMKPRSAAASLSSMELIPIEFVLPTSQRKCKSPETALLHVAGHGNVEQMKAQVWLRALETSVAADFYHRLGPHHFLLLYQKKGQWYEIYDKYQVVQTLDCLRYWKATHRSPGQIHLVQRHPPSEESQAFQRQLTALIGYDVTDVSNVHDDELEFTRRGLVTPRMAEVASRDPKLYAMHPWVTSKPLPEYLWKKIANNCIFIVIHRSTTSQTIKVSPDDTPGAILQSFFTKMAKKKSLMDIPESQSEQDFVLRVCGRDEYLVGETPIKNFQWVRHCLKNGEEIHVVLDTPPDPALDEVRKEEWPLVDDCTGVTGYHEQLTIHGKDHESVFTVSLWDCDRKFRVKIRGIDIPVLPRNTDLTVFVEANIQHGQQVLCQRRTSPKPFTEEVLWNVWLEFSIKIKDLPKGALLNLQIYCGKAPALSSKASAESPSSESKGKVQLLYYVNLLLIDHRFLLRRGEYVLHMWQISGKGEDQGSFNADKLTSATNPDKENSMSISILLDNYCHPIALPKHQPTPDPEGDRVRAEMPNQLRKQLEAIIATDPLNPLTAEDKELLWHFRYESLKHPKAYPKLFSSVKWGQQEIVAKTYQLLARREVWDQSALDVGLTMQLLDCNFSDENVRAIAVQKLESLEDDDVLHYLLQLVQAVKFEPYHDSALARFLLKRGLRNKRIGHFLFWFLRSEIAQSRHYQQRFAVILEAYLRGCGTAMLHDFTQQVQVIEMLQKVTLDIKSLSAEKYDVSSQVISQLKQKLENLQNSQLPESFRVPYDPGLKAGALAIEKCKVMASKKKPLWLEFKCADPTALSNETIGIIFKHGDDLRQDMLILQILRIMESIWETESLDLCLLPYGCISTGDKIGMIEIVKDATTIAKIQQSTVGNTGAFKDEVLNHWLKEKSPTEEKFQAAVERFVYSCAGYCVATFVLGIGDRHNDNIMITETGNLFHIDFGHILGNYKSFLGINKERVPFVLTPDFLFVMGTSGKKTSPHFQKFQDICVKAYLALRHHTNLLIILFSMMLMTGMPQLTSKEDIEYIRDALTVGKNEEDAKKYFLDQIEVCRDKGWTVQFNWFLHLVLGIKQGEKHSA

In general, bioavailability refers to dose-corrected exposure relative to a reference, in per cent. Usually clearance stands for the volume of plasma or blood freed of the substance per unit of time. Usually EC50 stands for the concentration that produces a half-maximal response. The solubility is the dissolved amount per volume that the medium holds. As a reminder, the IC50 is the point on the concentration scale where inhibition reaches its midpoint. Take `Cc1nn2c(O)cc(N3CCOCC3)nc2c1Cc1cccc(C(F)(F)F)c1C`: the bioavailability in data set [1] turned out to be 51%. The AUC/dose in the data set on Mus musculus was determined as 2321 ng·h/mL/mg/kg. Moreover, the clearance worked out at 3.7 mL/min/kg in [2], 0.33 mL/min/kg in data set [3] and 6.5 mL/min/kg in data set [12]. The EC50 in data set [4] is 31.6 nM; in [5], 1580 nM; in data set [11] it was greater than 15800 nM. Also, the fraction unbound in data set [6], in [7] and in data set [8] was no more than 0.001 throughout. Further, the Papp in data set [9] turned out to be 75.3 ×10⁻⁶ cm/s. The solubility in data set [10] worked out at 134 µM (≈ 54.5 µg/mL). Further, the half-inhibitory concentration (IC50) is 316 nM in data set [13], 316 nM in [14], 0.398 nM in data set [15] and 25.1 nM in data set [16].

The values are drawn from ChEMBL document CHEMBL2321733, “[3a,4]-Dihydropyrazolo[1,5a]pyrimidines: Novel, Potent, and Selective Phosphatidylinositol-3-kinase β Inhibitors” (ACS Med Chem Lett, 2013).
